According to patent US10308639B2, “Phosphatidylinositol 3-kinase inhibitors” (Gilead Sciences, Inc., priority 2014, dated 2019):
Where two headings read alike, the source gives them in different places.

What was measured:
Format in all cases: biochemical
[1] = molecular target: T1, PI3Kβ (Homo sapiens, UniProt P42338); assay: TR-FRET enzymatic activity assay, PI3Kβ
T1 construct: made in house

[2] = molecular target: T2, PI3Kδ (Homo sapiens, UniProt O00329); assay: TR-FRET enzymatic activity assay, PI3Kδ
T2 construct: made in house
T2 sequence (O00329 whole entry): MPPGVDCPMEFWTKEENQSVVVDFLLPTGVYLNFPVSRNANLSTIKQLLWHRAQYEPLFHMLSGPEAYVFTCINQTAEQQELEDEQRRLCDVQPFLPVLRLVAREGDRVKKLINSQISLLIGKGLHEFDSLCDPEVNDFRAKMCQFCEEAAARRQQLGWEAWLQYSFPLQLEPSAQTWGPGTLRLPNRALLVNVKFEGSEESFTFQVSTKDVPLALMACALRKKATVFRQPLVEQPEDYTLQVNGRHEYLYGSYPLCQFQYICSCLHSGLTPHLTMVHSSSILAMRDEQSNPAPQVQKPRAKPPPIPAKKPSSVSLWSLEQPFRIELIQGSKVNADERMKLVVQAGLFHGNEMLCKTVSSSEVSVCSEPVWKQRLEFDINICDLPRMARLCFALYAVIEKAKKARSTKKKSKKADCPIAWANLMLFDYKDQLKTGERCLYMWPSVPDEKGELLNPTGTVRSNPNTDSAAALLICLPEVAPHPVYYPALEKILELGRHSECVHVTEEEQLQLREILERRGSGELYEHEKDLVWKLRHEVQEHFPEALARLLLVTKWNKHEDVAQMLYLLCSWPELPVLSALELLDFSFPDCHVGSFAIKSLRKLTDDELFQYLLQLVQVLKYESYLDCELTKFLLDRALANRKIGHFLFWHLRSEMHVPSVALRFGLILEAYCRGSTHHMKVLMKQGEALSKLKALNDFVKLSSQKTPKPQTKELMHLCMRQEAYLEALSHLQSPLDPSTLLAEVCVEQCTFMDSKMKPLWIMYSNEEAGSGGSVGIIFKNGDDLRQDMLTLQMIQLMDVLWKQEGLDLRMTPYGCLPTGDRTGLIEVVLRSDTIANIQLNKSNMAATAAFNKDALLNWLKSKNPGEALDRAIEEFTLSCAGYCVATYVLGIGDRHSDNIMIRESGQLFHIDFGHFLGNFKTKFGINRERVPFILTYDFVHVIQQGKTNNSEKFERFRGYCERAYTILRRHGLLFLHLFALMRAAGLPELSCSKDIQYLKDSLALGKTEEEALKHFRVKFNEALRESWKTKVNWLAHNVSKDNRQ
T2 sequence (P27986 whole entry partner): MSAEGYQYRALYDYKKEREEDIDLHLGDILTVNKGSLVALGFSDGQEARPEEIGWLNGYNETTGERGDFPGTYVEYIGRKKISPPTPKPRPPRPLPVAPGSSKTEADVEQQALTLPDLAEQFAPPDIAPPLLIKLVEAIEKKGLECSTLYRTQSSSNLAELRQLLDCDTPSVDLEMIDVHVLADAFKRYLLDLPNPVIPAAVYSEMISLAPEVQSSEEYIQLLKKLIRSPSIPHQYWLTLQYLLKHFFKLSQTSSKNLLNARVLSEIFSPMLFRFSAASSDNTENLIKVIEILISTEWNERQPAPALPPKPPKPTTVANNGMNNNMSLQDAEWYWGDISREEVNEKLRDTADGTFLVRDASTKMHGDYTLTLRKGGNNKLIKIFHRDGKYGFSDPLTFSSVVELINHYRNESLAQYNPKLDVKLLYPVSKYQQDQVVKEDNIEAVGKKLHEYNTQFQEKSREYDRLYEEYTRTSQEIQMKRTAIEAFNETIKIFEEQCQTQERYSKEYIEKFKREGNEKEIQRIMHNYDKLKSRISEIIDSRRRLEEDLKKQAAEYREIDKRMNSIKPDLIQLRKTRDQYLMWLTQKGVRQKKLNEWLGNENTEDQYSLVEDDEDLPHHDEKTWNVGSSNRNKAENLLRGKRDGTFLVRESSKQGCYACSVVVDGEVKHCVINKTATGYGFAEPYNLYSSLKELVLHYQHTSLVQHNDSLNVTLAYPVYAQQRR

[3] = molecular target: T3, PI3Kγ (Homo sapiens, UniProt P48736); assay: TR-FRET enzymatic activity assay, PI3Kγ; settings: read-out: PI3Kγ IC50
T3 construct: made in house
T3 sequence (P48736 whole entry): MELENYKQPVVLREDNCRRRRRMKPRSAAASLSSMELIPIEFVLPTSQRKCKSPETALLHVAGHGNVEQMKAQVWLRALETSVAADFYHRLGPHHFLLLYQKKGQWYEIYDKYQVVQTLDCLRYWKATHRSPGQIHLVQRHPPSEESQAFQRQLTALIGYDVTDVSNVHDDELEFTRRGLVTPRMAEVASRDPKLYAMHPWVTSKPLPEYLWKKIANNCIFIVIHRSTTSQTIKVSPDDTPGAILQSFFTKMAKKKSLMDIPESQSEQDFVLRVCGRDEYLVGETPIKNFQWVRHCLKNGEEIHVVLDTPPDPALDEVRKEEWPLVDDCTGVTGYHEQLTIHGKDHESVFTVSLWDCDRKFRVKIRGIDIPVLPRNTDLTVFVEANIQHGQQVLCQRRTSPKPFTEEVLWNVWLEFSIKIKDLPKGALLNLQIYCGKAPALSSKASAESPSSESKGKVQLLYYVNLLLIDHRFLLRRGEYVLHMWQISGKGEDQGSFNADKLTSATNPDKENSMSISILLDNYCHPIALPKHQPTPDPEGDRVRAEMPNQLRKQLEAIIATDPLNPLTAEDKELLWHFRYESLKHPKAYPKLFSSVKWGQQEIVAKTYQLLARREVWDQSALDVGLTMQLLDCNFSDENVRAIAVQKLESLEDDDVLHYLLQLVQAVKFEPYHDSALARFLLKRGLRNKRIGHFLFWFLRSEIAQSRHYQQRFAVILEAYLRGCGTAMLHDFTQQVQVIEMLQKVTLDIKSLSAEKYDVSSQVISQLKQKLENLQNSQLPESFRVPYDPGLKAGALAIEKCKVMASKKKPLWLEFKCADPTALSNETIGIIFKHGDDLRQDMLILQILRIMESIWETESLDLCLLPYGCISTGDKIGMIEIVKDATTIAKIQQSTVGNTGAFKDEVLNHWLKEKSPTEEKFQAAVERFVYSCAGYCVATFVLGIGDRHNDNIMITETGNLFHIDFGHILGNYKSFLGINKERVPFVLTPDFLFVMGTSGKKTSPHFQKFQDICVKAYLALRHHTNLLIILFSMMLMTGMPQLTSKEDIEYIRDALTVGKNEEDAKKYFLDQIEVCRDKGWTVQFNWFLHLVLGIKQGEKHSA
Method in brief: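 Compounds were profiled per isoform in a biochemical kinase reaction, with activity detected by time-resolved fluorescence resonance energy transfer.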

[4] = Table 2, TR-FRET, 2x Km ATP, 30 minutes at 25° C.

T1 sequence (P42338 whole entry): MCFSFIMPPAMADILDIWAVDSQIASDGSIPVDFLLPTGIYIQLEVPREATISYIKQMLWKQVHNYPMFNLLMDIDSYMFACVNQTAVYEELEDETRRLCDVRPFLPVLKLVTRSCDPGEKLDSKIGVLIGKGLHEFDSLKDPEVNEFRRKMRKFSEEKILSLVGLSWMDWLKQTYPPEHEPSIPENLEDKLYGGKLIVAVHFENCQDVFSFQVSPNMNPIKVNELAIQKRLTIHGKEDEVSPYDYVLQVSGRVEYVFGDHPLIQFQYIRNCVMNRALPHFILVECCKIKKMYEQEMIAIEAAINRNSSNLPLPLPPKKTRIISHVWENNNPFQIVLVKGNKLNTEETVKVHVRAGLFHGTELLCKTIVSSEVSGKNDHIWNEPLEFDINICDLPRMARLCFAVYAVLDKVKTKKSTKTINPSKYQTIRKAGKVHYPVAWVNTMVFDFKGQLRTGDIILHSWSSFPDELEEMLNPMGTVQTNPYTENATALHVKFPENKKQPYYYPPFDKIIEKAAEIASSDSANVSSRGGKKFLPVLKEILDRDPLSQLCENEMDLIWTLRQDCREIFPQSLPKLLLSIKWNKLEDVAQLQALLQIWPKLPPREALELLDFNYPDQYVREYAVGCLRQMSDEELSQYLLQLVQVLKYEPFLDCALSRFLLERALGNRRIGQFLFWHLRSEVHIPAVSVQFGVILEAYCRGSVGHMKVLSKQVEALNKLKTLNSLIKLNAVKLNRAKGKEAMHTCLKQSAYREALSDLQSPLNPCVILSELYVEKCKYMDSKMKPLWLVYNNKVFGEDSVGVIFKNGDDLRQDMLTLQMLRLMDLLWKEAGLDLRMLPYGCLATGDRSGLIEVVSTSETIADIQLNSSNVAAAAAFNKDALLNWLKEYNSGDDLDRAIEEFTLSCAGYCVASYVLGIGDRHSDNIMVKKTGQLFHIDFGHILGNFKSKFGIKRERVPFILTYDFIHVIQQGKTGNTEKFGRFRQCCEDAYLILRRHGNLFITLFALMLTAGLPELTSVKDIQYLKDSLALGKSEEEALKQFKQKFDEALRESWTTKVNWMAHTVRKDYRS
T1 sequence (P27986 whole entry partner): as the sequence (P27986 whole entry partner) above

Compound	IC50 ([1]; Table 2a, same assay)	IC50 ([2]; Table 2a, same assay)	IC50 ([3]; Table 2a, same assay)	IC50 [1, 4]	IC50 [2, 4]	IC50 [3, 4]	IC50 [3]
C[C@H](Nc1ncnc(N)c1C#Cc1ccc(F)cn1)c1nc2cccc(Cl)c2c(=O)n1-c1cc[nH]n1 [Compound 72, (S)-2-(1-((6-amino-5-((5-fluoropyridin-2-yl)ethynyl)pyrimidin-4-yl)amino)ethyl)-5-chloro-3-(1H-pyrazol-3-yl)quinazolin-4(3H)-one]				4 nM	0.5 nM	4000 nM	
Nc1nc(N)c(Cl)c(N[C@H](c2nc3cccc(Cl)c3c(=O)n2-c2cc(Cl)[nH]n2)C2CC2)n1 [Compound 14, (S)-5-chloro-3-(5-chloro-1H-pyrazol-3-yl)-2-(cyclopropyl((2,6-diamino-5-chloropyrimidin-4-yl)amino)methyl)quinazolin-4(3H)-one]				350 nM	51 nM	7600 nM	
CCC[C@H](Nc1nc(N)nc(N)c1Cl)c1nc2cccc(Cl)c2c(=O)n1-c1cc[nH]n1 [Compound 124, (S)-5-chloro-2-(1-((2,6-diamino-5-chloropyrimidin-4-yl)amino)butyl)-3-(1H-pyrazol-3-yl)quinazolin-4(3h)-one]				14 nM	12 nM	6700 nM	
C[C@H](Nc1ncnc2sccc12)c1nc2cccc(Cl)c2c(=O)n1-c1cc[nH]n1 [Compound 60, (S)-5-chloro-3-(1H-pyrazol-3-yl)-2-(1-(thieno[2,3-d]pyrimidin-4-ylamino)ethyl)quinazolin-4(3H)-one]				43 nM	2 nM		> 10000 nM
C[C@H](Nc1nc(N)nc(N)c1C#N)c1nc2cccc(Cl)c2c(=O)n1-c1cn[nH]c1 [Compound 15, (S)-2,4-diamino-6-((1-(5-chloro-4-oxo-3-(1H-pyrazol-4-yl)-3,4-dihydroquinazolin-2-yl)ethyl)amino)pyrimidine-5-carbonitrile]				1 nM	0.4 nM	43 nM	
C[C@H](Nc1nc(N)nc(N)c1Cl)c1nc2c(C(F)(F)F)cccc2c(=O)n1-c1cc[nH]n1 [Compound 136, (S)-2-(1-((2,6-diamino-5-chloropyrimidin-4-yl)amino)ethyl)-3-(1H-pyrazol-3-yl)-8-(trifluoromethyl)quinazolin-4(3H)-one]	9 nM	11 nM	5500 nM				
CC[C@H](Nc1ncnc2scnc12)c1nc2c(C#N)cccc2c(=O)n1-c1cc[nH]n1 [Compound 74, (S)-4-oxo-3-(1H-pyrazol-3-yl)-2-(1-(thiazolo[5,4-d]pyrimidin-7-ylamino)propyl)-3,4-dihydroquinazoline-8-carbonitrile]				20 nM	5 nM		> 10000 nM
CC[C@H](Nc1nc(N)nc(C)c1C#N)c1nc2c(C#N)cccc2c(=O)n1-c1cc[nH]n1 [Compound 76, (S)-2-(1-((2-amino-5-cyano-6-methylpyrimidin-4-yl)amino)propyl)-4-oxo-3-(1H-pyrazol-3-yl)-3,4-dihydroquinazoline-8-carbonitrile]				0.6 nM	2 nM	6300 nM	
CC[C@H](Nc1nc(Cl)nc2[nH]nc(C)c12)c1nc2c(Cl)ccc(Cl)c2c(=O)n1-c1cc[nH]n1 [Compound 88, (S)-5,8-dichloro-2-(1-((6-chloro-3-methyl-1H-pyrazolo[3,4-d]pyrimidin-4-yl)amino)propyl)-3-(1H-pyrazol-3-yl)quinazolin-4(3H)-one]				4200 nM	2700 nM		> 10000 nM
C[C@H](Nc1nc(N)nc(N)c1Cl)c1nc2c(Cl)cc(F)cc2c(=O)n1-c1cn[nH]c1 [Compound 265, (S)-8-chloro-2-(1-((2,6-diamino-5-chloropyrimidin-4-yl)amino)ethyl)-6-fluoro-3-(1H-pyrazol-4-yl)quinazolin-4(3H)-one]	180 nM	31 nM	3100 nM				
CC[C@H](Nc1ncnc2[nH]cnc12)c1nc2c(Cl)ccc(Cl)c2c(=O)n1-c1cn[nH]c1 [Compound 57, (S)-2-(1-((9H-purin-6-yl)amino)propyl)-5,8-dichloro-3-(1H-pyrazol-4-yl)quinazolin-4(3H)-one]				380 nM	29 nM		> 10000 nM
CC[C@H](Nc1nc(N)nc(N)c1C#N)c1nc2cccc(Br)c2c(=O)n1-c1cc[nH]n1 [Compound 98, (S)-2,4-diamino-6-((1-(5-bromo-4-oxo-3-(1H-pyrazol-3-yl)-3,4-dihydroquinazolin-2-yl)propyl)amino)pyrimidine-5-carbonitrile]				0.3 nM	0.6 nM	110 nM	
CC[C@H](Nc1ncnn2ccnc12)c1nc2c(Cl)ccc(Cl)c2c(=O)n1-c1cn[nH]c1 [Compound 40, (S)-5,8-dichloro-2-(1-(imidazo[2,1-f][1,2,4]triazin-4-ylamino)propyl)-3-(1H-pyrazol-4-yl)quinazolin-4(3H)-one]				280 nM	38 nM	8700 nM	

The remaining lines, values ahead:

IC50 ([1]; Table 2a, same assay)	IC50 ([2]; Table 2a, same assay)	IC50 ([3]; Table 2a, same assay)	IC50 [1, 4]	IC50 [2, 4]	IC50 [3, 4]	IC50 [3]	Compound
6 nM	4 nM	1300 nM					C[C@H](Nc1nc(N)nc(C(F)F)c1C#N)c1nc2c(F)ccc(Cl)c2c(=O)n1-c1cc[nH]n1 [Compound 185, (S)-2-amino-4-((1-(5-chloro-8-fluoro-4-oxo-3-(1H-pyrazol-3-yl)-3,4-dihydroquinazolin-2-yl)ethyl)amino)-6-(difluoromethyl)pyrimidine-5-carbonitrile]
210 nM	20 nM	> 10000 nM					Cc1n[nH]cc1-n1c([C@H](C)Nc2nc(N)nc(N)c2Cl)nc2c(Cl)ccc(Cl)c2c1=O [Compound 218, (S)-5,8-dichloro-2-(1-((2,6-diamino-5-chloropyrimidin-4-yl)amino)ethyl)-3-(3-methyl-1H-pyrazol-4-yl)quinazolin-4(3H)-one]
36 nM	5 nM	520 nM					C[C@H](Nc1nc(N)nc(N)c1Cl)c1nc2cccc(C(F)F)c2c(=O)n1-c1cn[nH]c1 [Compound 213, (S)-2-(1-((2,6-diamino-5-chloropyrimidin-4-yl)amino)ethyl)-5-(difluoromethyl)-3-(1H-pyrazol-4-yl)quinazolin-4(3H)-one]
4 nM	1 nM	84 nM					C[C@H](Nc1nc(N)nc(N)c1C#N)c1nc2c(Cl)cc(F)cc2c(=O)n1-c1cn[nH]c1 [Compound 266, (S)-2,4-diamino-6-((1-(8-chloro-6-fluoro-4-oxo-3-(1H-pyrazol-4-yl)-3,4-dihydroquinazolin-2-yl)ethyl)amino)pyrimidine-5-carbonitrile]
650 nM	45 nM	8600 nM					Cc1c[nH]nc1-n1c([C@@H](Nc2nc(N)nc(N)c2Cl)C2CC2)nc2cccc(Cl)c2c1=O [Compound 248, (S)-5-chloro-2-(cyclopropyl((2,6-diamino-5-chloropyrimidin-4-yl)amino)methyl)-3-(4-methyl-1H-pyrazol-3-yl)quinazolin-4(3H)-one]
23 nM	20 nM	2200 nM					N#Cc1c(N[C@H](c2nc3c(F)ccc(Cl)c3c(=O)n2-c2cc[nH]n2)C2CC2)nc(N)nc1C(F)F [Compound 194, (S)-2-amino-4-(((5-chloro-8-fluoro-4-oxo-3-(1H-pyrazol-3-yl)-3,4-dihydroquinazolin-2-yl)(cyclopropyl)methyl)amino)-6-(difluoromethyl)pyrimidine-5-carbonitrile]
9 nM	4 nM	4000 nM					C[C@H](Nc1nc(N)nc(C(F)F)c1C#N)c1nc2c(Cl)cccc2c(=O)n1-c1cc[nH]n1 [Compound 188, (S)-2-amino-4-((1-(8-chloro-4-oxo-3-(1H-pyrazol-3-yl)-3,4-dihydroquinazolin-2-yl)ethyl)amino)-6-(difluoromethyl)pyrimidine-5-carbonitrile]
160 nM	23 nM	2020 nM					CCC[C@H](Nc1nc(N)nc(N)c1Cl)c1nc2cccc(Cl)c2c(=O)n1-c1cn[nH]c1 [Compound 250, (S)-5-chloro-2-(1-((2,6-diamino-5-chloropyrimidin-4-yl)amino)butyl)-3-(1H-pyrazol-4-yl)quinazolin-4(3H)-one]
8 nM	2 nM	71 nM					C[C@H](Nc1nc(N)nc(N)c1C#N)c1nc2ccc(F)c(Cl)c2c(=O)n1-c1cn[nH]c1 [Compound 264, (S)-2,4-diamino-6-((1-(5-chloro-6-fluoro-4-oxo-3-(1H-pyrazol-4-yl)-3,4-dihydroquinazolin-2-yl)ethyl)amino)pyrimidine-5-carbonitrile]
19 nM	19 nM	6900 nM					N#Cc1c(N[C@H](c2nc3c(Cl)cccc3c(=O)n2-c2cc[nH]n2)C2CC2)nc(N)nc1C(F)F [Compound 196, (S)-2-amino-4-(((8-chloro-4-oxo-3-(1H-pyrazol-3-yl)-3,4-dihydroquinazolin-2-yl)(cyclopropyl)methyl)amino)-6-(difluoromethyl)pyrimidine-5-carbonitrile]
13 nM	12 nM	6100 nM					C[C@H](Nc1nc(N)nc(N)c1C#N)c1nc2c(F)c(F)ccc2c(=O)n1-c1cc[nH]n1 [Compound 231, (S)-2,4-diamino-6-((1-(7,8-difluoro-4-oxo-3-(1H-pyrazol-3-yl)-3,4-dihydroquinazolin-2-yl)ethyl)amino)pyrimidine-5-carbonitrile]
5 nM	2 nM	2100 nM					Cc1ccc(Cl)c2nc([C@H](C)Nc3nc(N)nc(C(F)F)c3C#N)n(-c3cc[nH]n3)c(=O)c12 [Compound 224, (S)-2-amino-4-((1-(8-chloro-5-methyl-4-oxo-3-(1H-pyrazol-3-yl)-3,4-dihydroquinazolin-2-yl)ethyl)amino)-6-(difluoromethyl)pyrimidine-5-carbonitrile]
